Experimental data as given in the NIST ThermoML archive (doi:10.1016/j.tca.2014.05.034).
± gives the expanded uncertainty stated by the source.

Tests used:
[1] = 100 kPa, Liquid; for kinematic viscosity: Capillary tube (Ostwald / Ubbelohde) method; for mass density: Pycnometric method
[2] = xn = mol fraction of the nth substance listed; settings: 100 kPa, Liquid, x2 = 0; for kinematic viscosity: Capillary tube (Ostwald / Ubbelohde) method; for mass density: Pycnometric method

Compound	kinematic viscosity ([1]; 298.15 K) [m2/s]	mass density ([1]; 298.15 K) [kg/m3]	kinematic viscosity ([1]; 303.15 K) [m2/s]	mass density ([1]; 303.15 K) [kg/m3]	kinematic viscosity ([1]; 308.15 K) [m2/s]	mass density ([1]; 308.15 K) [kg/m3]	kinematic viscosity ([1]; 313.15 K) [m2/s]	mass density ([1]; 313.15 K) [kg/m3]	kinematic viscosity ([1]; 318.15 K) [m2/s]	mass density ([1]; 318.15 K) [kg/m3]	kinematic viscosity ([2]; 298.15 K) [m2/s]	mass density ([2]; 298.15 K) [kg/m3]	kinematic viscosity ([2]; 303.15 K) [m2/s]	mass density ([2]; 303.15 K) [kg/m3]	kinematic viscosity ([2]; 308.15 K) [m2/s]	mass density ([2]; 308.15 K) [kg/m3]	kinematic viscosity ([2]; 313.15 K) [m2/s]	mass density ([2]; 313.15 K) [kg/m3]	kinematic viscosity ([2]; 318.15 K) [m2/s]	mass density ([2]; 318.15 K) [kg/m3]
OCCOCCO [diethylene glycol]	2.47e-05 ± 2e-07	1112.8 ± 0.7	1.96e-05 ± 2e-07	1109.2 ± 0.7	1.53e-05 ± 1e-07	1105.6 ± 0.7	1.29e-05 ± 1e-07	1102.3 ± 0.7	1.1e-05 ± 1e-07	1099.2 ± 0.7	–	–	–	–	–	–	–	–	–	–
NCCN [ethane-1,2-diamine]	1.56e-06 ± 1e-08	893.3 ± 0.7	1.39e-06 ± 1e-08	888.8 ± 0.7	1.27e-06 ± 1e-08	884.9 ± 0.7	1.17e-06 ± 1e-08	880 ± 0.7	1.08e-06 ± 1e-08	875.2 ± 0.7	–	–	–	–	–	–	–	–	–	–
OCCOCCO [diethylene glycol] + NCCN	–	–	–	–	–	–	–	–	–	–	2.47e-05 ± 2e-07	1112.8 ± 0.7	1.96e-05 ± 2e-07	1109.2 ± 0.7	1.53e-05 ± 1e-07	1105.6 ± 0.7	1.29e-05 ± 1e-07	1102.3 ± 0.7	1.1e-05 ± 1e-07	1099.2 ± 0.7
